Measurements from publication PMC10893103, “Cyclodextrin-Enabled Enantioselective Complexation Study of Cathinone Analogs” (Molecules, 2024).
Like-named read-outs stand apart in the source and are kept apart here.

Legend:
[1] = pKa determination by CE-pH titration; format: physicochemical; settings: 25 mM Na2HPO4 / 25 mM Na2B4O7 buffers, pH 7–10, 25 °C
Source text: CE is a widely used technique for the analysis of charged compounds; thus, the acid-base properties and the pKa of the analyte are crucial in CE method development. Furthermore, the protonation state of compounds has a decisive influence on both their behavior in the body and their affinity for CDs. […] However, it has the disadvantage that its reproducibility is less than that of conventional pH potentiometry; thus, the results of CE-pH titration should be confirmed by independent method (potentiometry, NMR-pH titration).
In order to determine the pKa of the five cathinone analogs, CE-pH titration was applied, in which the purpose was to register the effective mobility changes as a function of pH. As the five tested compounds contain secondary or tertiary amino groups, the pH range tested was pH 7–10, applying Na2HPO4 -Na2B4O7 buffers, where the appropriate pH was adjusted with hydrochloric acid. At a given pH, the mobility is determined by the sum of the mobility of the protonated and deprotonated forms:(1) μpH=μLxL+μHLxHL=μL+μHLKH^+/1+KH^+ where the μpH is the mobility of the compound at the given pH; μL and μHL are the mobilities of the deprotonated and protonated forms, respectively; xL and xHL are the mole fractions of the deprotonated and protonated forms, respectively; and K is the protonation constant. Plotting the μpH data against pH gives the titration curves from which the protonation constant can be calculated according to Equation (1).

[2] = pKa determination by potentiometry; format: physicochemical; settings: aqueous solution; I = 0.15 M KCl, 25.0 °C
Protocol: The protonation constants were confirmed by potentiometry using a GLpKa instrument (Sirius, Forest Row, UK) equipped with a combination Ag/AgCl pH electrode. The four-parameter technique (Four PlusTM method) was used for electrode calibration. The titrations were carried out at constant ionic strength (I = 0.15 M KCl) and temperature (T = 25.0 ± 0.5 °C) under a nitrogen atmosphere. An amount of 10 ml of a ~1 mM aqueous solution of the analytes (4-MEC, MDPV) was pre-acidified to pH 2.0 with 0.5 M HCl and then titrated with 0.5 M KOH to pH 12.2. Three parallel measurements were carried out. The pKa values were calculated using the RefinementProTM software (Sirius, Forest Row, UK).

[3] = CE-pH titration; cited from earlier work
[4] = Affinity capillary electrophoresis (ACE), pH 7.4; settings: 30 mM phosphate buffer pH 7.4, 25 °C, 15 kV
How it was run: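 Mobility-shift ACE of cathinone analogues with cyclodextrins (0.25–20 mM in BGE) in 30 mM phosphate pH 7.4, 25 °C, fused-silica capillary, 15 kV, UV 215 nm, DMSO as EOF marker. Mobilities obtained by HVL peak fitting; complex stability constants corrected for viscosity and ionic strength.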

[5] = Affinity capillary electrophoresis (ACE), pH 4.5; settings: 20 mM acetate buffer pH 4.5, 25C, 15 kV
Source text: The simplest way to determine the mobility is from the migration times (tmax) read from the electropherograms from which the apparent mobility could be calculated, but more accurate mobility values could be obtained by the determination with the Haarhoff–van der Linde (HVL) function based on Equation (2). (2) HVLδ(t;a0,a1,a2,a3δ)=a0/a2a3δ2πexp[−1/2(t−a1/a2)^2]/1/exp(a3δ)−1+1/2[1+erf(t−a1/2a2)] where a0 is the area of the HVL function, a1 is the position of the Gaussian component, a2 is the standard deviation of the Gaussian component, and a3δ is the peak shape distortion. The application of the HVL function is necessary in the case of accurate ACE measurements because, in several cases, the peaks are distorted due to the complex formation, which makes reading the migration times and calculating the mobility more difficult and imprecise.
The most popular technique for quantifying the analyte–ligand interaction with CE is mobility shift ACE. This technique involves varying the background electrolyte’s ligand concentrations while introducing a constant volume of the analyte and an EOF marker into the capillary. The analyte–ligand equilibrium is assumed to happen before the separation is complete, requiring fast complex formation kinetics. Typical ligand concentrations are 1–2 orders of magnitude greater than the analyte. The following equation describes the observed mobility as a function of the interaction with the following analyte ligand:(3) μ=μfff+μcfc where μ is the observed mobility, μf and μc are the electrophoretic mobility of the free and complexed analyte, and ff and fc are the free and ligand-bound fractions of the analyte.
Assuming a 1:1 binding stoichiometry, the effective mobility (μeff, calculated by correcting with the EOF marker mobility) can be expressed as (4) μeff=μfK+μc[L]/K+[L] where K is the equilibrium dissociation constant and [L] is the ligand concentration. The apparent complex stability constant (K) can be calculated using several methods, e.g., the X-reciprocal method with linear fitting, but non-linear curve fitting based on Equation (4) is more accurate. A hyperbolic growing or decline curve is obtained, and K could be determined by plotting the effective mobility as a function of the [L] (e.g., CD concentration) in the background electrolyte. The CEval software enables faster and simpler evaluation of electropherograms and further data processing to determine the stability constants of complexes with a 1:1 stoichiometric ratio [27].
During the ACE measurement series, the CD concentration is increased whilst injecting a constant amount of the cathinone derivatives and the EOF marker DMSO. The complex stability calculations were conducted with the CEval program applying the HVL function to eliminate the effect of electromigration dispersion on migration time for exact mobility and, thus complex stability constant determination. Viscosity correction and ionic strength correction were applied. […]

| Compound | pKa [1] | 4-MEC–CD complex stability constant, Kstab/Kstab1 (unresolved or first migrating enantiomer) [4] | Flephedrone–CD complex stability constant, Kstab/Kstab1 (unresolved or first migrating enantiomer) [4] | MDPV–CD complex stability constant, Kstab/Kstab1 (unresolved or first migrating enantiomer) [4] | Mephedrone–CD complex stability constant, Kstab/Kstab1 (unresolved or first migrating enantiomer) [4] | Flephedrone–CD complex stability constant Kstab1 (first migrating enantiomer) [5] | Flephedrone–CD complex stability constant, Kstab2 (second migrating enantiomer) [5] | MDPV–CD complex stability constant Kstab1 (first migrating enantiomer) [5] | also measured |
| --- | --- | --- | --- | --- | --- | --- | --- | --- | --- |
| CCNC(C)C(=O)c1ccc(C)cc1 (racemic) [4-MEC, (±)-2-(ethylamino)-1-(4-methylphenyl)propan-1-one] | 8.81 ± 0.02 |  |  |  |  |  |  |  | pKa [2]: 8.85 ± 0.04 |
| CCC(NC)C(=O)c1ccc2c(c1)OCO2 (racemic) [Butylone, (±)-1-(1,3-benzodioxol-5-yl)-2-(methylamino)-butan-1-one] | 8.64 ± 0.01 |  |  |  |  |  |  |  |  |
| CNC(C)C(=O)c1ccc(F)cc1 (racemic) [Flephedrone, (±)-1-(4-fluorophenyl)-2-(methylamino)propan-1-one] | 8.56 ± 0.01 |  |  |  |  |  |  |  |  |
| CCCC(C(=O)c1ccc2c(c1)OCO2)N1CCCC1 (racemic) [MDPV, (±)-1-(benzo[d]-[1, 3]-dioxol-5-yl)-2-(pyrrolidin-1-yl)pentan-1-one] | 9 ± 0.02 |  |  |  |  |  |  |  | pKa [2]: 9.05 ± 0.04; pKa [3]: 9.13 |
| CNC(C)C(=O)c1ccc(C)cc1 (racemic) [Mephedrone, (±)-2-(methylamino)-1-(4-methylphenyl)propan-1-one] | 8.61 ± 0.01 |  |  |  |  |  |  |  | pKa [3]: 8.82 |
| CC(=O)O[C@@H]1[C@@H](OC(C)=O)[C@H]2O[C@H]3[C@H](OC(C)=O)[C@@H](OC(C)=O)[C@@H](O[C@H]4[C@H](OC(C)=O)[C@@H](OC(C)=O)[C@@H](O[C@H]5[C@H](OC(C)=O)[C@@H](OC(C)=O)[C@@H](O[C@H]6[C@H](OC(C)=O)[C@@H](OC(C)=O)[C@@H](O[C@H]7[C@H](OC(C)=O)[C@@H](OC(C)=O)[C@@H](O[C@H]8[C@H](OC(C)=O)[C@@H](OC(C)=O)[C@@H](O[C@@H]1[C@@H](COS(=O)(=O)O)O2)O[C@@H]8COS(=O)(=O)O)O[C@@H]7COS(=O)(=O)O)O[C@@H]6COS(=O)(=O)O)O[C@@H]5COS(=O)(=O)O)O[C@@H]4COS(=O)(=O)O)O[C@@H]3COS(=O)(=O)O [HDAS-β-CD, heptakis-(2,3-O-diacethyl, 6-O-sulfo)-β-CD] |  | 560 ± 40 M⁻¹ | 110 ± 37 M⁻¹ | 360 ± 55 M⁻¹ | 450 ± 60 M⁻¹ | 470 ± 40 M⁻¹ | 660 ± 55 M⁻¹ | 800 ± 50 M⁻¹ | 4-MEC–CD complex stability constant, Kstab2 (second migrating enantiomer) [4]: 830 ± 45 M⁻¹; Butylone–CD complex stability constant, Kstab/Kstab1 (unresolved or first migrating enantiomer) [4]: 725 ± 20 M⁻¹; Flephedrone–CD complex stability constant, Kstab2 (second migrating enantiomer) [4]: 360 ± 75 M⁻¹; MDPV–CD complex stability constant, Kstab2 (second migrating enantiomer) [4]: 340 ± 30 M⁻¹; Mephedrone–CD complex stability constant, Kstab2 (second migrating enantiomer) [4]: 730 ± 40 M⁻¹; MDPV–CD complex stability constant, Kstab2 (second migrating enantiomer) [5]: 960 ± 80 M⁻¹ |
| CO[C@@H]1[C@@H](OC)[C@H]2O[C@H]3[C@H](OC)[C@@H](OC)[C@@H](O[C@H]4[C@H](OC)[C@@H](OC)[C@@H](O[C@H]5[C@H](OC)[C@@H](OC)[C@@H](O[C@H]6[C@H](OC)[C@@H](OC)[C@@H](O[C@H]7[C@H](OC)[C@@H](OC)[C@@H](O[C@H]8[C@H](OC)[C@@H](OC)[C@@H](O[C@@H]1[C@@H](COS(=O)(=O)O)O2)O[C@@H]8COS(=O)(=O)O)O[C@@H]7COS(=O)(=O)O)O[C@@H]6COS(=O)(=O)O)O[C@@H]5COS(=O)(=O)O)O[C@@H]4COS(=O)(=O)O)O[C@@H]3COS(=O)(=O)O [HDMS-β-CD, heptakis-(2,3-O-dimethyl, 6-O-sulfo)-β-CD] |  |  |  | 915 ± 265 M⁻¹ |  | 250 ± 7 M⁻¹ | 235 ± 20 M⁻¹ | 160 ± 15 M⁻¹ | 4-MEC–CD complex stability constant Kstab1 (first migrating enantiomer) [5]: 170 ± 15 M⁻¹; 4-MEC–CD complex stability constant, Kstab2 (second migrating enantiomer) [5]: 190 ± 15 M⁻¹; Butylone–CD complex stability constant Kstab1 (first migrating enantiomer) [5]: 150 ± 10 M⁻¹; Butylone–CD complex stability constant, Kstab2 (second migrating enantiomer) [5]: 180 ± 12 M⁻¹; MDPV–CD complex stability constant, Kstab2 (second migrating enantiomer) [5]: 175 ± 12 M⁻¹; Mephedrone–CD complex stability constant Kstab1 (first migrating enantiomer) [5]: 205 ± 20 M⁻¹; Mephedrone–CD complex stability constant, Kstab2 (second migrating enantiomer) [5]: 205 ± 15 M⁻¹ |
| O=S(=O)(O)OC[C@H]1O[C@@H]2O[C@H]3[C@H](O)[C@@H](O)[C@@H](O[C@H]4[C@H](O)[C@@H](O)[C@@H](O[C@H]5[C@H](O)[C@@H](O)[C@@H](O[C@H]6[C@H](O)[C@@H](O)[C@@H](O[C@H]7[C@H](O)[C@@H](O)[C@@H](O[C@H]8[C@H](O)[C@@H](O)[C@@H](O[C@H]1[C@H](O)[C@H]2O)O[C@@H]8COS(=O)(=O)O)O[C@@H]7COS(=O)(=O)O)O[C@@H]6COS(=O)(=O)O)O[C@@H]5COS(=O)(=O)O)O[C@@H]4COS(=O)(=O)O)O[C@@H]3COS(=O)(=O)O [HS-β-CD, heptakis-(6-O-sulfo)-β-CD] |  |  | 580 ± 14 M⁻¹ |  |  | 635 ± 35 M⁻¹ | 615 ± 30 M⁻¹ | 500 ± 45 M⁻¹ | Flephedrone–CD complex stability constant, Kstab2 (second migrating enantiomer) [4]: 470 ± 65 M⁻¹ |
| sulfopropylated-β-CD [SP-β-CD (DS~4)] |  | 620 ± 65 M⁻¹ | 120 ± 12 M⁻¹ |  | 500 ± 65 M⁻¹ |  |  |  | Mephedrone–CD complex stability constant, Kstab2 (second migrating enantiomer) [4]: 450 ± 65 M⁻¹ |
| sulfopropylated-γ-CD [SP-γ-CD] |  | 70 ± 10 M⁻¹ | < 10 M⁻¹ | 140 ± 20 M⁻¹ | 45 ± 4 M⁻¹ |  |  |  | Butylone–CD complex stability constant, Kstab/Kstab1 (unresolved or first migrating enantiomer) [4]: 70 ± 10 M⁻¹ |
